In ChEMBL document CHEMBL3272152, “Diester derivatives as apomorphine prodrugs” (J Med Chem, 1976):
Activity calls are given as the source filed them. The rule behind the calls is not given here.

Experiments:
Rattus norvegicus [1] = test: Induction of stereotyped gnawling behavior in rat assessed as time duration at 30 umol/kg, ip relative to control; type: functional
Rattus norvegicus [2] = test: Induction of turning behavior in rat at 50 to 200 umol/kg, ip; type: functional, organism-based
[3] = Toxicity in ip dosed rat; type: organism-based; conditions: in vivo
Rattus norvegicus [4] = test: Induction of stereotyped gnawling behavior in rat assessed as time duration at 200 umol/kg, ip relative to control; type: functional
Rattus norvegicus [5] = test: Induction of stereotyped gnawling behavior in rat assessed as time duration at 100 umol/kg, ip relative to control; type: functional
Rattus norvegicus [6] = test: Induction of stereotyped gnawling behavior in ip dosed rat assessed as latency to peak score of stereotyped behavior; type: functional
Rattus norvegicus [7] = test: Induction of stereotyped gnawling behavior in rat assessed as time duration of behavior administered by gastric tube; type: functional, organism-based
Rattus norvegicus [8] = test: Induction of stereotyped gnawling behavior in ip dosed rat assessed as time duration; type: functional, organism-based
Striatum [9] = test: Induction of cAMP production in rat corpus striatum at 10 to 100 uM; type: functional, tissue-based
Striatum [10] = test: Induction of cAMP production in rat corpus striatum at 10 to 100 uM in presence of rat liver; type: functional, tissue-based
Liver = test: Prodrug conversion in rat liver at 0.4 mM after 60 mins; type: ADME, tissue-based; conditions: 1 h, 400 µM
Brain = test: Drug uptake in ip dosed mouse brain; type: ADME, organism-based; conditions: in vivo

## CN1CCc2cccc3c2[C@H]1Cc1ccc(O)c(O)c1-3.CN1CCc2cccc3c2[C@H]1Cc1ccc(O)c(O)c1-3.Cl.Cl.O [APOMORPHINE HYDROCHLORIDE]
Rattus norvegicus [1]
  Time: 1.6 h
Rattus norvegicus [2]
  Activity: Active
[3]
  MTD: < 300 mg/kg
Rattus norvegicus [4]
  Time: 2.6 h
Rattus norvegicus [5]
  Time: 1.9 h
Rattus norvegicus [6]
  Time: 26 min
Rattus norvegicus [7]
  Activity: inactive

## CN1CCc2cccc3c2[C@H]1Cc1ccc(OC(=O)C(C)(C)C)c(OC(=O)C(C)(C)C)c1-3.Cl
Rattus norvegicus [8]
  Activity: Dose-dependent effect
Rattus norvegicus [1]
  Time: 3.1 h
Rattus norvegicus [2]
  Activity: Active
[3]
  MTD: < 300 mg/kg
Rattus norvegicus [4]
  Time: 7.8 h
Rattus norvegicus [5]
  Time: 5.1 h
Rattus norvegicus [7]
  Activity: inactive
Striatum [9]
  Activity: inactive

## CCC(=O)Oc1ccc2c(c1OC(=O)CC)-c1cccc3c1[C@@H](C2)N(C)CC3.Cl
Rattus norvegicus [8]
  Activity: inactive
Rattus norvegicus [1]
  Time: 1.6 h
Rattus norvegicus [2]
  Activity: Active
[3]
  MTD: < 300 mg/kg
Rattus norvegicus [4]
  Time: 2.9 h
Rattus norvegicus [5]
  Time: 1.9 h
Rattus norvegicus [6]
  Time: 41 min
Rattus norvegicus [7]
  Activity: inactive
Striatum [9]
  Activity: inactive

## CC(=O)Oc1ccc2c(c1OC(C)=O)-c1cccc3c1[C@@H](C2)N(C)CC3
Rattus norvegicus [8]
  Activity: Active
Rattus norvegicus [1]
  Time: 2.1 h
Rattus norvegicus [2]
  Activity: Active
[3]
  MTD: < 300 mg/kg
Rattus norvegicus [4]
  Time: 2.7 h
Rattus norvegicus [5]
  Time: 2.3 h
Rattus norvegicus [7]
  Activity: inactive
Striatum [9]
  Activity: inactive

## CC(C)C(=O)Oc1ccc2c(c1OC(=O)C(C)C)-c1cccc3c1[C@@H](C2)N(C)CC3.Cl
Rattus norvegicus [8]
  Activity: Dose-dependent effect
Rattus norvegicus [1]
  Time: 2.5 h
Striatum [10]
  Activity: Active
Liver
  Drug metabolism: 55%
Rattus norvegicus [2]
  Activity: Active
[3]
  MTD: < 300 mg/kg
Rattus norvegicus [4]
  Time: 4.9 h
Brain
  Drug uptake: Active
Rattus norvegicus [5]
  Time: 3.3 h
Rattus norvegicus [7]
  Activity: inactive
Striatum [9]
  Activity: inactive

## CN1CCc2cccc3c2[C@H]1Cc1ccc(OC(=O)c2ccccc2)c(OC(=O)c2ccccc2)c1-3
Rattus norvegicus [8]
  Activity: Dose-dependent effect
Rattus norvegicus [1]
  Time: 3.8 h
Liver
  Drug metabolism: 9%
Rattus norvegicus [2]
  Activity: Active
[3]
  MTD: < 300 mg/kg
Rattus norvegicus [4]
  Time: 10.8 h
Brain
  Drug uptake: Active
Rattus norvegicus [5]
  Time: 6.3 h
Rattus norvegicus [6]
  Time: 83 min
Rattus norvegicus [7]
  Activity: inactive
Striatum [9]
  Activity: inactive
